Assay results published in patent US20260250325A1, “Antiviral Polypeptide Membrane Fusion Inhibitor, and Preparation Method and Application Thereof” (priority 2025, published 2026).
Where a SMILES comes first, the peptide text is derived from it. The star is where a group is joined. X1 = CC(C)CCCC(C)C1CCC2C3CC=C4CC(OC(=O)CCC(=O)*)CCC4(C)C3CCC12C

Key:
RSV A long virus strain = type: cell-based; conditions: RSV A long virus strain, HEp-2 cells, plaque reduction, 1 day; read-out: IC50
Description: In this embodiment, an RSV-A long virus strain was used as an infection virus in the present disclosure. The anti-RSV activity of the synthesized polypeptide was determined through CPE detection.
The inhibitory activity of the compounds of Table 1-1-Table 1-5, positive polypeptide in Table 1-11, and positive control T-118 against the RSV-A long virus strain was detected.
(§1) Human Epithelial Pharyngeal Carcinoma Cells (HEp-2) were from the American Type Culture Collection (ATCC), with a catalog number CCL-23. The cells were cultured in a DMEM culture solution in which 10% fetal bovine serum, 1% sodium pyruvate, 1% nonessential amino acids, 2 mM glutamine, 100 U/mL penicillin, and 100 μg/mL streptomycin were added. The RSV A long virus strain was from the ATCC, with a catalog number VR-26.
This study used a plaque reduction experiment to detect the in-vitro activity of a test sample against the RSV A long virus strain. The test sample and a control compound were tested at 8 concentrations in duplicated wells. The HEp-2 cells were digested with trypsin and then diluted to a concentration of 300,000 cells per milliliter by using an experimental culture solution. The diluted cells were added to a 96-well cell test board, with 100 μL per well, corresponding to 30000 cells per well. The cells were cultured overnight in a 37° C. incubator with 5% CO2. On the second day, the test sample was diluted in an experimental culture medium at a fold ratio. The sample diluted at a fold ratio and an equal volume of virus (100 PFU per well) were well mixed and incubated at 37° C. in 5% CO2 for 1 h. Then, the culture solution in the 96-well cell test board was discarded, the sample virus mixed solution (200 μL) was added to the 96-well cell culture plate, and incubated at 37° C. in 5% CO2 for 2 hours. After 2 h, the sample virus mixed solution was discarded, and 200 μL of maintenance culture medium containing 0.8% CMC and the corresponding concentration of the test sample was added. A cell control (cells, without compound treatment or viral infection) and a viral control (cell infection virus, without compound treatment) were set. The cells were cultured for 1 day in the 37° C. incubator with 5% CO2. One day after viral infection, the culture medium was discarded, the cells were fixed with 4% paraformaldehyde, and then permeabilization was performed with 0.5% Triton X-100. After the plate was washed with DPBS, an RSV-specific antibody (RSV antibody, diluted 1:3000) was added and incubated at 37° C. for 1 h. Then, a secondary antibody (donkey anti-goat IgG, diluted 1:500) and incubated at 37° C. for 1 h. The secondary antibody was discarded, a TrueBlue solution was added, dyeing was performed for 10 min; and the plate was washed with running water and then air-dried, and the number of spots in each well was counted by using a microplate imaging counter. Raw data was used for calculating the antiviral activity of the samples.
(§2) The raw data for plaque counts and cell viability tests were used for analyzing the antiviral activity and cytotoxicity of the test samples, respectively. A calculation formula was shown as follows.
% inhibition rate=100−(sample value-cell control average value)/(virus control average value-cell control average value)×100%
(§3) Non-linear fitting analysis was performed on the inhibition rate of the sample by using GraphPad Prism (version 10), so as to calculate the IC50 and CC50 values for the sample.
IC50: in an in-vitro antiviral activity experiment, IC50 represented an inhibition ability indicator of a compound to be tested against the Hep-2 cells infected by the RSV A long virus strain.

[1] = Cytotoxicity test in HEp-2 cells (CCK8 cell viability); type: cell-based; conditions: human; HEp-2 cells, CCK8, 1 day; read-out: CC50
Description: as §1
A cytotoxicity test and an antiviral test were performed in parallel. The HEp-2 cells were inoculated in the microplate at a density of 30,000 cells per well, and cultured overnight in the 37° C. incubator with 5% CO2. On the next day, the diluted test sample was added. The cell control (cells, without compound treatment) and a culture solution control (culture solution only, without cell or compound treatment) were set. A final concentration of DMSO in the culture solution was 0.5%. The cells were cultured for 1 day in the 37° C. incubator with 5% CO2. Cell viability was detected by using a cell viability detection kit CCK8.
as §2
cell survival rate=(sample value-culture medium control average value)/(cell control average value-culture medium control average value)×100
as §3
CC50: in the in-vitro antiviral activity experiment, CC50 was used to measure the toxicity of the compound to be tested to the Hep-2 cells. To be precise, when the compound to be tested was at a specific concentration, 50% of the Hep-2 cells was caused to die, and this concentration was defined as the CC50. A fitting formula was log (inhibitor) vs. response-Variable slope (four parameters).

SMILES	IC50 (RSV A long virus strain) [nM]	CC50 at 1 day [1] [nM]
CC[C@H](C)[C@H](NC(=O)[C@H](CCCCN)NC(C)=O)C(=O)N[C@@H](CCC(=O)O)C(=O)N[C@@H](CCC(=O)O)C(=O)N[C@H](C(=O)N[C@@H](CC(N)=O)C(=O)N[C@@H](CCCCN)C(=O)N[C@@H](CCCCN)C(=O)N[C@H](C(=O)N[C@@H](CCC(=O)O)C(=O)N[C@@H](CCC(=O)O)C(=O)N[C@@H](CO)C(=O)N[C@@H](CC(C)C)C(=O)N[C@@H](CCCCN)C(=O)N[C@@H](CCCCN)C(=O)N[C@H](C(=O)N[C@@H](CCC(=O)O)C(=O)N[C@@H](CCC(=O)O)C(=O)N[C@@H](CO)C(=O)N[C@@H](CC(=O)O)C(=O)N[C@@H](CCCCN)C(=O)N[C@@H](CCCCN)C(=O)N[C@@H](CC(C)C)C(=O)N[C@@H](CCC(=O)O)C(=O)N[C@@H](CCC(=O)O)C(=O)N[C@H](C(=O)N[C@@H](CC(N)=O)C(=O)N[C@@H](CCCCN)C(=O)N[C@@H](CCCCN)C(=O)N[C@@H](CC(C)C)C(=O)N[C@@H](CCC(=O)O)C(=O)N[C@@H](C)C(=O)N[C@@H](C)C(=O)N[C@@H](C)C(=O)N[C@@H](CCCCN)C(=O)N[C@@H](CCCCNC(=O)CCC(=O)OC1CCC2(C)C(=CCC3C2CCC2(C)C(C(C)CCCC(C)C)CCC32)C1)C(N)=O)C(C)C)[C@@H](C)CC)[C@@H](C)CC)C(C)C (stereo partly shown) [Compound 10] (Ac-KIEEVNKKIEESLKKIEESDKKLEEVNKKLEAAAKK(X1)-NH2)	18.1	1400
CC[C@H](C)[C@H](NC(=O)[C@H](CO)NC(=O)[C@H](C)NC(=O)[C@H](CC(=O)O)NC(=O)[C@H](Cc1ccccc1)NC(C)=O)C(=O)N[C@@H](CCC(=O)O)C(=O)N[C@@H](CCC(=O)O)C(=O)N[C@H](C(=O)N[C@@H](CC(N)=O)C(=O)N[C@@H](CCCNC(=N)N)C(=O)N[C@@H](CCCNC(=N)N)C(=O)N[C@H](C(=O)N[C@@H](CCC(=O)O)C(=O)N[C@@H](CCC(=O)O)C(=O)N[C@@H](CO)C(=O)N[C@@H](CC(C)C)C(=O)N[C@@H](CCCNC(=N)N)C(=O)N[C@@H](CCCNC(=N)N)C(=O)N[C@H](C(=O)N[C@@H](CCC(=O)O)C(=O)N[C@@H](CCC(=O)O)C(=O)N[C@@H](CO)C(=O)N[C@@H](CC(=O)O)C(=O)N[C@@H](CCCNC(=N)N)C(=O)N[C@@H](CCCNC(=N)N)C(=O)N[C@@H](CC(C)C)C(=O)N[C@@H](CCC(=O)O)C(=O)N[C@H](C(=O)N[C@@H](CC(N)=O)C(=O)N[C@@H](CCCCN)C(=O)N[C@@H](CCCCN)C(=O)N[C@@H](C)C(=O)NCC(=O)N[C@@H](CO)C(=O)NCC(=O)N[C@@H](CO)C(=O)NCC(=O)N[C@@H](CCCCNC(=O)CCC(=O)OC1CCC2(C)C(=CCC3C2CCC2(C)C(C(C)CCCC(C)C)CCC32)C1)C(N)=O)C(C)C)[C@@H](C)CC)[C@@H](C)CC)C(C)C (stereo partly shown) [Compound 12] (Ac-FDASIEEVNRRIEESLRRIEESDRRLEVNKKAGSGSGK(X1)-NH2)	28.4	> 8000
CC[C@H](C)[C@H](NC(=O)[C@H](CO)NC(=O)[C@H](C)NC(=O)[C@H](CC(=O)O)NC(=O)[C@H](Cc1ccccc1)NC(C)=O)C(=O)N[C@@H](CCC(=O)O)C(=O)N[C@@H](CCC(=O)O)C(=O)N[C@H](C(=O)N[C@@H](CC(N)=O)C(=O)N[C@@H](CCCNC(=N)N)C(=O)N[C@@H](CCCNC(=N)N)C(=O)N[C@H](C(=O)N[C@@H](CCC(=O)O)C(=O)N[C@@H](CCC(=O)O)C(=O)N[C@@H](CO)C(=O)N[C@@H](CC(C)C)C(=O)N[C@@H](CCCNC(=N)N)C(=O)N[C@@H](CCCNC(=N)N)C(=O)N[C@H](C(=O)N[C@@H](CCC(=O)O)C(=O)N[C@@H](CCC(=O)O)C(=O)N[C@@H](CO)C(=O)N[C@@H](CC(=O)O)C(=O)N[C@@H](CCCNC(=N)N)C(=O)N[C@@H](CCCNC(=N)N)C(=O)N[C@@H](CC(C)C)C(=O)N[C@@H](CCC(=O)O)C(=O)N[C@@H](C)C(=O)N[C@@H](C)C(=O)N[C@@H](C)C(=O)N[C@@H](CCCCN)C(=O)N[C@@H](CCCCNC(=O)CCC(=O)OC1CCC2(C)C(=CCC3C2CCC2(C)C(C(C)CCCC(C)C)CCC32)C1)C(N)=O)[C@@H](C)CC)[C@@H](C)CC)C(C)C (stereo partly shown) [Compound 19] (Ac-FDASIEEVNRRIEESLRRIEESDRRLEAAAKK(X1)-NH2)	16.2	8300
CC[C@H](C)[C@H](NC(=O)[C@H](CCCCN)NC(=O)[C@H](CCC(=O)O)NC(=O)[C@H](CC(C)C)NC(=O)[C@H](CO)NC(=O)[C@H](CCC(N)=O)NC(=O)[C@H](CC(N)=O)NC(=O)[C@@H](NC(=O)[C@H](CCCCN)NC(=O)[C@H](CCC(=O)O)NC(=O)[C@H](CC(N)=O)NC(=O)[C@@H](NC(=O)[C@H](CCC(N)=O)NC(=O)[C@H](CO)NC(=O)[C@H](C)NC(=O)[C@H](CC(=O)O)NC(=O)[C@H](Cc1ccccc1)NC(=O)[C@@H](NC(=O)[C@H](CC(C)C)NC(=O)[C@H](CCC(=O)O)NC(=O)[C@H](CC(=O)O)NC(=O)[C@H](Cc1ccc(O)cc1)NC(C)=O)C(C)C)C(C)C)[C@@H](C)CC)C(=O)N[C@@H](CCCNC(=N)N)C(=O)N[C@@H](CCCCN)C(=O)N[C@@H](CO)C(=O)N[C@@H](CC(=O)O)C(=O)N[C@@H](CCC(=O)O)C(=O)N[C@@H](CC(C)C)C(=O)N[C@@H](CC(C)C)C(=O)N[C@@H](Cc1c[nH]cn1)C(=O)N[C@@H](CC(N)=O)C(=O)N[C@H](C(N)=O)C(C)C [Compound 23] (Ac-YDELVFDASQVNEKINQSLEKIRKSDELLHNV-NH2)	2330	> 8000
CC[C@H](C)[C@H](NC(=O)[C@H](Cc1ccccc1)NC(=O)[C@H](C)NC(=O)[C@H](CC(C)C)NC(=O)[C@H](CO)NC(=O)[C@H](CCC(N)=O)NC(=O)[C@H](CC(N)=O)NC(=O)[C@@H](NC(=O)[C@H](CCCCN)NC(=O)[C@H](CCC(=O)O)NC(=O)[C@H](CC(N)=O)NC(=O)[C@@H](NC(=O)[C@H](CCC(N)=O)NC(=O)[C@H](CCC(=O)O)NC(=O)[C@H](CC(=O)O)NC(=O)[C@H](CO)NC(C)=O)C(C)C)[C@@H](C)CC)C(=O)N[C@@H](CCCNC(=N)N)C(=O)N[C@@H](CCCNC(=N)N)C(=O)N[C@H](C(=O)N[C@@H](CCCNC(=N)N)C(=O)N[C@@H](CCCCN)C(=O)N[C@@H](CC(C)C)C(=O)N[C@@H](CC(C)C)C(=O)N[C@@H](Cc1c[nH]cn1)C(=O)N[C@@H](CC(N)=O)C(=O)N[C@@H](CCC(=O)O)C(=O)N[C@@H](C)C(=O)N[C@@H](C)C(=O)N[C@@H](C)C(=O)N[C@@H](CCCCN)C(=O)N[C@@H](CCCCNC(=O)CCC(=O)OC1CCC2(C)C(=CCC3C2CCC2(C)C(C(C)CCCC(C)C)CCC32)C1)C(N)=O)[C@@H](C)CC (stereo partly shown) [Compound 31] (Ac-SDEQVNEKINQSLAFIRRIRKLLHNEAAAKK(X1)-NH2)	2220	> 8000
